The target in experiment [1] is T1, murine CCR2 (Mus musculus, UniProt P51683).
T1 construct: host or cells: U2OS β-arrestin cell line
As to the kind of experiment: Functional β-arrestin recruiting test with murine MCP-1 (B-2b). Type of experiment: cell-based. The settings on record: U2OS β-arrestin cell line transfected with murine CCR2; agonist murine MCP-1; in some cases means of several determinations. The method, then:
The antagonistic action of test substances on CCR2 was determined in a β-arrestin test. The PathHunter β-arrestin GPCR test system (DiscoveRx Corporation, Ltd.) is a cell-based functional method for detecting binding of β-arrestin to an activated receptor. The molecular basis is a […] complementation measured by the enzymatic conversion of a chemiluminescent substrate. The test cell used was a U2OS β-arrestin cell line transfected with murine CCR2 (93-0543C3, DiscoveRx Corporation, Ltd.).
(§1) The test substances were dissolved in dimethyl sulphoxide (DMSO) at a concentration of 10 mM and serially diluted with DMSO in steps of 1:3.16 for a 10-point dose/activity analysis. According to the desired test concentrations, the substances were pre-diluted in Tyrode with 2 mM CaCl2 and 0.05% BSA.
The cells, cultivated in MEM Eagle (supplemented with 10% FCS, 50 U/ml of penicillin, 50 μg/ml of streptomycin, 250 μg/ml of hygromycin and 500 μg/ml of geniticin), were sown at 2000 cells/25 μl in 384 well, μCLEAR/black cell culture plates from Greiner (#781092) and incubated at 37° C. for 24 h. The sowing medium consisted of Opti-MEM (supplemented with 1% FCS, 50 U/ml of penicillin and 50 μg/ml of streptomycin). The cells were pre-incubated for 10 min with 10 μl of the test substances diluted in buffer, and 10 μl of agonist solution [human MCP-1 (PeproTech, #300-04) in Tyrode with 0.05% BSA) were then added. The human MCP-1 was employed at the concentration which corresponds to the EC50 which had been determined in a preliminary test (usually about 3 nM). After 90 min of incubation at 37° C., the solution was removed, and recruitment of β-arrestin to CCR2 was detected with the aid of the PathHunter detection reagent (93-001, DiscoveRx Corporation, Ltd.) according to the instructions of the manufacturer. Luminescence was measured after an incubation time of 60 min using a proprietary luminescence imaging measuring instrument. The molar concentration of the test substance which caused 50% inhibition of the MCP-1 effect (IC50) was determined using a 4-parameter logistic function (Hill function).
The test was carried out in a manner identical to that described above under B-2a, but using murine MCP-1 (PeproTech, #250-10) as agonist.

Experiment [2] deals with T2, human CCR2 (Homo sapiens, UniProt P41597).
T2 construct: host or cells: Chem-1 cell line
T2 sequence (P41597 1-360 isoform P41597-2): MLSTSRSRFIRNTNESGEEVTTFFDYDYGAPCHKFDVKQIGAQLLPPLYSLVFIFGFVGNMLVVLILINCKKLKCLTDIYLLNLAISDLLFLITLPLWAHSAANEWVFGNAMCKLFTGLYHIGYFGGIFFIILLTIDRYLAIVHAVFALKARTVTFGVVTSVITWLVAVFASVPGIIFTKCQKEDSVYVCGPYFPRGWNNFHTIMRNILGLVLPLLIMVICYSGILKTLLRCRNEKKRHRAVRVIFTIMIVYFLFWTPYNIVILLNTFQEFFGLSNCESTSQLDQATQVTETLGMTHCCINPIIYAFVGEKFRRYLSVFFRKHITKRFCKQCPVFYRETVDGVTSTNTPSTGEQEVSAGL
Kind of experiment: Functional Ca2+ release test (B-1). Type of experiment: cell-based. The conditions noted are these: Chem-1 cell line transfected with human CCR2; 50% inhibition of the MCP-1 effect, MCP-1 at EC50 (about 5 nM); in some cases means of several determinations. The procedure:
The antagonistic action of test substances on CCR2 was determined in a functional Ca^2+ release test. Binding of CCL2/MCP-1 to CCR2 leads to a change in the conformation of the receptor resulting in Gi/Gq protein activation and intracellular signal cascade. This involves, inter alia, an intracellular Ca^2+ release. The test cell used was a Chem-1 cell line transfected with human CCR2 (ChemiSCREEN™ CCR2B Calcium-Optimized FLIPR Cell Line, Merck Millipore).
as §1
The cells, cultivated in DMEM high glucose [supplemented with 10% FCS, 1 mM pyruvate, 15 mM HEPES, 500 μg/ml geniticin and non-essential amino acids (NEAA)], were sown at 5000 cells/25 μl in 384 well, μCLEAR/black cell culture plates from Greiner (#781092) and incubated at 37° C. for 24 h. The sowing medium consisted of DMEM high glucose [supplemented with 5% FCS, 1 mM pyruvate, 15 mM HEPES, 50 U/ml penicillin, 50 μg/ml streptomycin and non-essential amino acids (NEAA)]. The medium was then removed and the cells were charged for 60 min at 37° C. with Fluo-4 dye [25 μl Tyrode with 3 μM Fluo-4 AM (1 mM DMSO stock solution), 0.4 mg/ml Brilliant Black, 2.5 mM probenicid, 0.03% Pluronic F-127]. The cells were pre-incubated for 10 min with 10 μl of the test substances diluted in buffer, and 20 μl of agonist solution (MCP-1 in Tyrode with 0.05% BSA) were then added. MCP-1 was employed at the concentration which corresponds to the EC50 which had been determined in a preliminary test (usually about 5 nM). Ca^2+ release was monitored over a period of 120 s in 1 s increments in a proprietary fluorescence imaging reader. The molar concentration of the test substance which caused 50% inhibition of the MCP-1 effect (IC50) was determined using a 4-parameter logistic function (Hill function).

Molecules are shown by their SMILES.

The source of these data is US20160237059A1, “HETEROCYCLIC SUBSTITUTED TRIFLUOROMETHYL PYRIMIDINONES AND THEIR USE” (BAYER PHARMA AKTIENGESELLSCHAFT, priority 2013, published 2016).

T1 sequence (P51683 whole entry): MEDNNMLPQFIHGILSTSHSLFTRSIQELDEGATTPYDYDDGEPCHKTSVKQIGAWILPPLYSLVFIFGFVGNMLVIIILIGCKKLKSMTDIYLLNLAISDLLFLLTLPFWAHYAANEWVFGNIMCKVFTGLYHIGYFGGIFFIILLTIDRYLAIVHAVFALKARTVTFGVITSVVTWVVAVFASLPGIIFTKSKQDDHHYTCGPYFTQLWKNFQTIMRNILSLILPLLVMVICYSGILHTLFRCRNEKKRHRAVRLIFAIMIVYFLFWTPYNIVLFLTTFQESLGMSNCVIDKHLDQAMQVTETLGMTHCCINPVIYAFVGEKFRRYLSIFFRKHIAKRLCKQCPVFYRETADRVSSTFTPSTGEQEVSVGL

A word on the IC50: it is the point on the concentration scale where inhibition reaches its midpoint. Read a high IC50 as weaker potency. On to `Nc1ncc(-c2nc(C(F)(F)F)c(Oc3ccc(Cl)c(Cl)c3)c(=O)[nH]2)cn1` [Example 154, 2′-amino-5-(3,4-dichlorophenoxy)-6-(trifluoromethyl)-2,5′-bipyrimidin-4(3H)-one], for which the IC50 in experiment [1] was 1930 nM; in experiment [2], 37 nM.
The corresponding values for `Nc1ncc(-c2nc(C(F)(F)F)c(Oc3ccc(Cl)c(C(F)(F)F)c3)c(=O)[nH]2)cn1` [Example 155, 2′-amino-5-[4-chloro-3-(trifluoromethyl)phenoxy]-6-(trifluoromethyl)-2,5′-bipyrimidin-4(3H)-one] are 1080 nM and 23 nM.
The corresponding values for `COc1cc(OC)nc(-c2nc(C(F)(F)F)c(Oc3ccc(Cl)c(Cl)c3)c(=O)[nH]2)n1` [Example 156, 5-(3,4-dichlorophenoxy)-4′,6′-dimethoxy-6-(trifluoromethyl)-2,2′-bipyrimidin-4(3H)-one] are 244 nM and 0.7 nM.
As for `Cc1ccc(-c2nc(C(F)(F)F)c(Oc3ccc(Cl)c(Cl)c3)c(=O)[nH]2)nc1C` [Example 157, 5-(3,4-dichlorophenoxy)-2-(5,6-dimethylpyridin-2-yl)-6-(trifluoromethyl)pyrimidin-4(3H)-one], the concentration for half-maximal inhibition (IC50) in experiment [1] came to 1510 nM; in experiment [2], 14 nM.
Taken in the same sequence, the figures for `Cc1ccc(-c2nc(C(F)(F)F)c(Oc3ccc(Cl)c(C(F)(F)F)c3)c(=O)[nH]2)nc1C` [Example 158, 5-[4-chloro-3-(trifluoromethyl)phenoxy]-2-(5,6-dimethylpyridin-2-yl)-6-(trifluoromethyl)pyrimidin-4(3H)-one] were 983 nM and 8.7 nM.
The corresponding values for `CC(C)(C)Oc1ccnc(-c2nc(C(F)(F)F)c(Oc3ccc(Cl)c(Cl)c3)c(=O)[nH]2)c1` [Example 159, 2-(4-tert-butoxypyridin-2-yl)-5-(3,4-dichlorophenoxy)-6-(trifluoromethyl)pyrimidin-4(3H)-one] are 2470 nM and 62 nM.
As to `CC(C)(C)Oc1ccnc(-c2nc(C(F)(F)F)c(Oc3ccc(Cl)c(C(F)(F)F)c3)c(=O)[nH]2)c1` [Example 160, 2-(4-tert-butoxypyridin-2-yl)-5-[4-chloro-3-(trifluoromethyl)phenoxy]-6-(trifluoromethyl)pyrimidin-4(3H)-one], the results for the IC50 in experiment [1] and in experiment [2] were 1960 nM and 62 nM, respectively.
Taken in the same sequence, the figures for `O=c1[nH]c(-c2cccc[n+]2[O-])nc(C(F)(F)F)c1Oc1ccc(Cl)c(Cl)c1` [Example 161, 5-(3,4-dichlorophenoxy)-2-(1-oxidopyridin-2-yl)-6-(trifluoromethyl)pyrimidin-4(3H)-one] were 432 nM and 2.3 nM.
As to `CCc1cccc(-c2nc(C(F)(F)F)c(Oc3ccc(Cl)c(Cl)c3)c(=O)[nH]2)n1` [Example 162, 2-(6-ethylpyridin-2-yl)-5-(3,4-dichlorophenoxy)-6-(trifluoromethyl)pyrimidin-4(3H)-one], the IC50 in experiment [1] was found to be 1070 nM; in experiment [2], 1.9 nM.
The corresponding values for `CC(C)Oc1ccc(-c2nc(C(F)(F)F)c(Oc3ccc(Cl)c(Cl)c3)c(=O)[nH]2)cn1` [Example 163, 5-(3,4-dichlorophenoxy)-2-(6-isopropoxypyridin-3-yl)-6-(trifluoromethyl)pyrimidin-4(3H)-one] are 7680 nM and 129 nM.
The corresponding values for `O=c1[nH]c(-c2cccnc2)nc(C(F)(F)F)c1Oc1ccc(Cl)c(C(F)(F)F)c1` [Example 164, 5-[4-chloro-3-(trifluoromethyl)phenoxy]-2-(pyridin-3-yl)-6-(trifluoromethyl)pyrimidin-4(3H)-one] are 798 nM and 16 nM.
The corresponding values for `O=c1[nH]c(-c2cccnc2)nc(C(F)(F)F)c1Cc1ccc(Cl)c(C(F)(F)F)c1` [Example 165, 5-[4-chloro-3-(trifluoromethyl)benzyl]-2-(pyridin-3-yl)-6-(trifluoromethyl)pyrimidin-4(3H)-one] are 3370 nM and 14 nM.
For the molecule `CNc1cccc(-c2nc(C(F)(F)F)c(Oc3ccc(Cl)c(Cl)c3)c(=O)[nH]2)n1` [Example 166, 5-(3,4-dichlorophenoxy)-2-[6-(methylamino)pyridin-2-yl]-6-(trifluoromethyl)pyrimidin-4(3H)-one], the IC50 was 277 nM in experiment [1] and 8.8 nM in experiment [2].
Regarding `CNc1cccc(-c2nc(C(F)(F)F)c(Oc3ccc(Cl)c(C(F)(F)F)c3)c(=O)[nH]2)n1` [Example 167, 5-[4-chloro-3-(trifluoromethyl)phenoxy]-2-[6-(methylamino)pyridin-2-yl]-6-(trifluoromethyl)pyrimidin-4(3H)-one], the IC50 in experiment [1] worked out at 153 nM; in experiment [2], 2.7 nM.
For `CNc1ccnc(-c2nc(C(F)(F)F)c(Oc3ccc(Cl)c(Cl)c3)c(=O)[nH]2)c1` [Example 168, 5-(3,4-dichlorophenoxy)-2-[4-(methylamino)pyridin-2-yl]-6-(trifluoromethyl)pyrimidin-4(3H)-one], the results for the IC50 in experiment [1] and in experiment [2] were 1210 nM and 25 nM, respectively.
Taken in the same sequence, the figures for `CNc1ccnc(-c2nc(C(F)(F)F)c(Oc3ccc(Cl)c(C(F)(F)F)c3)c(=O)[nH]2)c1` [Example 169, 5-[4-chloro-3-(trifluoromethyl)phenoxy]-2-[4-(methylamino)pyridin-2-yl]-6-(trifluoromethyl)pyrimidin-4(3H)-one] were 624 nM and 36 nM.
With `Cc1cc(-c2nc(C(F)(F)F)c(Oc3ccc(Cl)c(C(F)(F)F)c3)c(=O)[nH]2)nn1C` [Example 170, 5-[4-chloro-3-(trifluoromethyl)phenoxy]-2-(1,5-dimethyl-1H-pyrazol-3-yl)-6-(trifluoromethyl)pyrimidin-4(3H)-one], the IC50 in experiment [1] is 84 nM; in experiment [2], 0.7 nM.
The corresponding values for `COc1conc1-c1nc(C(F)(F)F)c(Oc2ccc(Cl)c(Cl)c2)c(=O)[nH]1` [Example 179, 5-(3,4-dichlorophenoxy)-2-(4-methoxy-1,2-oxazol-3-yl)-6-(trifluoromethyl)pyrimidin-4(3H)-one] are 73 nM and 1.8 nM.
Consider `COc1conc1-c1nc(C(F)(F)F)c(Oc2ccc(Cl)c(C(F)(F)F)c2)c(=O)[nH]1` [Example 180, 5-[4-chloro-3-(trifluoromethyl)phenoxy]-2-(4-methoxy-1,2-oxazol-3-yl)-6-(trifluoromethyl)pyrimidin-4(3H)-one], for which the figures for the IC50 in experiment [1] and in experiment [2] were 105 nM and 1 nM, respectively.
